Measurements taken from ChEMBL document CHEMBL3397018, “Discovery of phenylpiperazine derivatives as IGF-1R inhibitor with potent antiproliferative properties in vitro” (Bioorg Med Chem Lett, 2015).
Active and inactive are the calls of the source. The calls are words filed in the database; no cut-off is given here.

Assays:
[1] = Antiproliferative activity against human SGC7901 cells after 48 hrs by MTT assay; conditions: SGC-7901, 48 h
[2] = Antiproliferative activity against human SMMC7721 cells after 48 hrs by MTT assay; conditions: SMMC-7721, 48 h
MCF7 [3] = assay: cells; conditions: Homo sapiens, MCF7, 48 h
cells = conditions: Homo sapiens, LS174T, 48 h
Description: Antiproliferative activity against human LS 174T cells after 48 hrs by MTT assay

[4] = Cytotoxicity against human QSG7701 cells after 72 hrs by MTT assay; format: cell-based
[5] = target: Insulin-like growth factor 1 receptor (Homo sapiens, UniProt P08069); assay: Inhibition of NH2-terminal glutathione S-transferase fused human recombinant IGF-IR catalytic domain expressed in insect cells using poly(Glu:Tyr) substrate by ELISA-based assay
MCF7 [6] = assay: Induction of apoptosis in human MCF7 cells after 24 hrs by DNA ladder detection based method; format: functional, cell-based

Chain of Insulin-like growth factor 1 receptor (P08069 31-736 limits assumed): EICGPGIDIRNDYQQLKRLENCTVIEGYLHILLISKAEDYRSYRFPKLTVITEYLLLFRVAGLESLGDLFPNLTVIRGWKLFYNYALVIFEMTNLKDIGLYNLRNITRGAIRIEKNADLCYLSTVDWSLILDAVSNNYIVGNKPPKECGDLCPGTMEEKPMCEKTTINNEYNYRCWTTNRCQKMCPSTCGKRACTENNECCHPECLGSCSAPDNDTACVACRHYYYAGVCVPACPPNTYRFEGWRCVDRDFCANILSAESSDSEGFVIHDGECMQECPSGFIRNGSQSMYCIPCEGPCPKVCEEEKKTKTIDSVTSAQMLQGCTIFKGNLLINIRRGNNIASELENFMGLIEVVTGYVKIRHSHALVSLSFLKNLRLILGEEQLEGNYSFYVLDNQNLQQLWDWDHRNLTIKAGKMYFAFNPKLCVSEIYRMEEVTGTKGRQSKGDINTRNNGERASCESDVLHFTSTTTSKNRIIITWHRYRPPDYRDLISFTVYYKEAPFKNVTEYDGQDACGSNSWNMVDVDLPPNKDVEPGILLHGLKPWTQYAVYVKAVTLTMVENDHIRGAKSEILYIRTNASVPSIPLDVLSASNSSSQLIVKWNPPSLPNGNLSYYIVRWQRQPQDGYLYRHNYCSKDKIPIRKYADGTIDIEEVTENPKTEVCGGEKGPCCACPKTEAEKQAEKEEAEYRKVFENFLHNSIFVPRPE
Chain of Insulin-like growth factor 1 receptor (P08069 741-1367 limits assumed): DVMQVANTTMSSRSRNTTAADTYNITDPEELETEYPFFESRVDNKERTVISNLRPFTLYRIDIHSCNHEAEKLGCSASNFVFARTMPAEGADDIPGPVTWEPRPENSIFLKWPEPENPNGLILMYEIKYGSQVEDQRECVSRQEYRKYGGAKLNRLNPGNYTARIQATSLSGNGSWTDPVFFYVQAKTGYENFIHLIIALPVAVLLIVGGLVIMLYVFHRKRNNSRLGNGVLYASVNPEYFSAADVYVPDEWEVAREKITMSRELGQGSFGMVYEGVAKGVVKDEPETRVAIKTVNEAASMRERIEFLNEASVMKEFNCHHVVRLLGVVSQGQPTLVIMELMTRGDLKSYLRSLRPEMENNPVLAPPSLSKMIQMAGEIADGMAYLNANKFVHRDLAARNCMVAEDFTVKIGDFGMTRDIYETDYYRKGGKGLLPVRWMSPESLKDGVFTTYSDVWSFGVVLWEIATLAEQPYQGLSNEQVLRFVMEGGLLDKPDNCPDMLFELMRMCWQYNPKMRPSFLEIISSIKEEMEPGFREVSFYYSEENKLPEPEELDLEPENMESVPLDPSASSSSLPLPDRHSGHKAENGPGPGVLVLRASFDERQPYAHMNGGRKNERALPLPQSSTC

Row | IC50 (MCF7 [3]) [µM] | IC50 (cells) [µM] | IC50 [5] [µM] | SMILES | IC50 [1] [µM] | IC50 [2] [µM] | CC50 at 72 h [4] [µM] | Activity (MCF7 [6])
1 | 0.863 | 1.82 | – | Cc1ccc(N2CCN(CC(O)c3ccc(Br)cc3)CC2)c(C)c1 (stereo not given) | 1.39 | 1.48 | – | –
2 | 0.777 | 1.89 | – | OC(CN1CCN(c2ccc(Cl)c(Cl)c2)CC1)c1ccc(Br)cc1 (stereo not given) | 2.14 | 1.68 | – | –
3 | 1.75 | 2.05 | – | Cc1cc(N2CCOCC2)cc2[nH]c(-c3c(NC[C@@H](O)c4cccc(Cl)c4)cc[nH]c3=O)nc12 | 2.89 | 2.56 | 32000 | –
4 | 1.22 | 2.57 | – | COc1ccccc1N1CCN(CC(O)c2ccc(Br)cc2)CC1 (stereo not given) | 4.15 | 2.28 | – | –
5 | 10.4 | 16.9 | – | OC(CN1CCN(c2cccc(Cl)c2)CC1)c1ccc(Br)cc1 (stereo not given) | 22.3 | 7.83 | – | –
6 | 1.34 | 2.6 | – | COc1ccc(N2CCN(CC(O)c3ccc(Br)cc3)CC2)cc1 (stereo not given) | 3.46 | 2.82 | – | –
7 | 2.46 | 2.54 | – | OC(CN1CCN(c2ccccc2Cl)CC1)c1ccc(Br)cc1 (stereo not given) | 4.62 | 3.92 | – | –
8 | 0.86 | 0.963 | – | OC(CN1CCN(c2cccc(C(F)(F)F)c2)CC1)c1ccc(Br)cc1 (stereo not given) | 2.08 | 1.2 | 6600 | –
9 | 11.5 | 4.61 | – | OC(CN1CCN(c2ccc(F)cc2)CC1)c1ccc(Br)cc1 (stereo not given) | 10.3 | 8.16 | – | –
10 | 0.037 | 0.111 | 0.034 | OC(CN1CCN(C(c2ccccc2)c2ccccc2)CC1)c1ccc(Br)cc1 (stereo not given) | 0.253 | 0.135 | 2000 | –
11 | 1.06 | 1.92 | – | OC(CN1CCN(c2cccc(Cl)c2Cl)CC1)c1ccc(Br)cc1 (stereo not given) | 2.47 | 2.04 | – | –
12 | 0.024 | 0.068 | – | OC(CN1CCN(C(c2ccc(F)cc2)c2ccc(F)cc2)CC1)c1ccc(Br)cc1 (stereo not given) | 0.116 | 0.15 | – | Active
13 | 16.4 | 5.34 | – | OC(CN1CCN(c2ccccc2F)CC1)c1ccc(Br)cc1 (stereo not given) | 16 | 9.63 | – | –
14 | 1.31 | 2.18 | – | O=[N+]([O-])c1ccc(N2CCN(CC(O)c3ccc(Br)cc3)CC2)cc1 (stereo not given) | 1.84 | 1.53 | 1600 | –
15 | 2.88 | 2.69 | 0.568 | OC(CN1CCN(Cc2ccccc2)CC1)c1ccc(Br)cc1 (stereo not given) | 3.76 | 3.54 | – | –
16 | 5.71 | 8.99 | – | OC(CN1CCN(c2ccccc2)CC1)c1ccc(Br)cc1 (stereo not given) | 9.28 | 7.64 | 250 | –
17 | 1.44 | 2.06 | – | COc1cccc(N2CCN(CC(O)c3ccc(Br)cc3)CC2)c1 (stereo not given) | 3.29 | 2.91 | – | –
18 | 3.41 | 6.61 | – | OC(CN1CCN(c2ccccn2)CC1)c1ccc(Br)cc1 (stereo not given) | 5.7 | 6.12 | – | –
